ChEMBL document CHEMBL1212923, “Synthesis and in vivo evaluation of phenethylpiperazine amides: selective 5-hydroxytryptamine(2A) receptor antagonists for the treatment of insomnia” (J Med Chem, 2010)
The source made the active and inactive calls. No cut-off for these calls is given here.

How the values were obtained:
[1] = target: T1, 5-hydroxytryptamine receptor 2C (Homo sapiens, UniProt P28335); format: cell-based, HEK293
T1 sequence (P28335 whole entry): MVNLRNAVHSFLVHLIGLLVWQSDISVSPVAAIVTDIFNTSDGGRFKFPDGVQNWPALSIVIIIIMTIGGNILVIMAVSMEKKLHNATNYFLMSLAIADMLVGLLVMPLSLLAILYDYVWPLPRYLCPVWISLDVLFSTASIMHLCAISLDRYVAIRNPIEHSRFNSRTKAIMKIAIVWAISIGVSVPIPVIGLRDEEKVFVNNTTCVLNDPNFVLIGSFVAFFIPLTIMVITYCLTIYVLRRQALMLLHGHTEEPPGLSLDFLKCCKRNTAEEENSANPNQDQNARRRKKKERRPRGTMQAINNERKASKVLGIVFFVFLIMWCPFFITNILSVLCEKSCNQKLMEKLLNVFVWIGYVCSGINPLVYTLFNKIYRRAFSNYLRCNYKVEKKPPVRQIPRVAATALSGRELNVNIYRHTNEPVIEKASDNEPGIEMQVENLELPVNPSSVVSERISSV

[2] = target: 5-hydroxytryptamine receptor 2A (Homo sapiens, UniProt P28223); assay: biochemical
Sequence of 5-hydroxytryptamine receptor 2A (P28223 whole entry): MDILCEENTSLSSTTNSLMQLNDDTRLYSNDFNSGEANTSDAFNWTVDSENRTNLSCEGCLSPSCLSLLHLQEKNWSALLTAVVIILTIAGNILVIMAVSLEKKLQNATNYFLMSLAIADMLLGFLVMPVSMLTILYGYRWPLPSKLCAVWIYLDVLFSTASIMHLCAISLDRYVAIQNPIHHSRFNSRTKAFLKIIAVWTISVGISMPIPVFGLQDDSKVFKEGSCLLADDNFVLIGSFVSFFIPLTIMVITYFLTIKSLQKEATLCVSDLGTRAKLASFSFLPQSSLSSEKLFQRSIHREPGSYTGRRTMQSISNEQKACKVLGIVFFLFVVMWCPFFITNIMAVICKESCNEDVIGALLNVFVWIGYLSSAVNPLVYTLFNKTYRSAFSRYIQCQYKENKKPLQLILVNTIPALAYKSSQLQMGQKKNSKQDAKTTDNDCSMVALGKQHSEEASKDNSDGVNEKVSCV
Description: Displacement of [125I]DOI from human recombinant 5HT2A receptor expressed in HEK293 cells after 1 hr by scintillation counting

[3] = target: hERG (KCNH2) (Homo sapiens, UniProt Q12809); assay: Inhibition of human ERG at 3 uM by patch clamp electrophysiology assay
Sequence of hERG (KCNH2) (Q12809 whole entry): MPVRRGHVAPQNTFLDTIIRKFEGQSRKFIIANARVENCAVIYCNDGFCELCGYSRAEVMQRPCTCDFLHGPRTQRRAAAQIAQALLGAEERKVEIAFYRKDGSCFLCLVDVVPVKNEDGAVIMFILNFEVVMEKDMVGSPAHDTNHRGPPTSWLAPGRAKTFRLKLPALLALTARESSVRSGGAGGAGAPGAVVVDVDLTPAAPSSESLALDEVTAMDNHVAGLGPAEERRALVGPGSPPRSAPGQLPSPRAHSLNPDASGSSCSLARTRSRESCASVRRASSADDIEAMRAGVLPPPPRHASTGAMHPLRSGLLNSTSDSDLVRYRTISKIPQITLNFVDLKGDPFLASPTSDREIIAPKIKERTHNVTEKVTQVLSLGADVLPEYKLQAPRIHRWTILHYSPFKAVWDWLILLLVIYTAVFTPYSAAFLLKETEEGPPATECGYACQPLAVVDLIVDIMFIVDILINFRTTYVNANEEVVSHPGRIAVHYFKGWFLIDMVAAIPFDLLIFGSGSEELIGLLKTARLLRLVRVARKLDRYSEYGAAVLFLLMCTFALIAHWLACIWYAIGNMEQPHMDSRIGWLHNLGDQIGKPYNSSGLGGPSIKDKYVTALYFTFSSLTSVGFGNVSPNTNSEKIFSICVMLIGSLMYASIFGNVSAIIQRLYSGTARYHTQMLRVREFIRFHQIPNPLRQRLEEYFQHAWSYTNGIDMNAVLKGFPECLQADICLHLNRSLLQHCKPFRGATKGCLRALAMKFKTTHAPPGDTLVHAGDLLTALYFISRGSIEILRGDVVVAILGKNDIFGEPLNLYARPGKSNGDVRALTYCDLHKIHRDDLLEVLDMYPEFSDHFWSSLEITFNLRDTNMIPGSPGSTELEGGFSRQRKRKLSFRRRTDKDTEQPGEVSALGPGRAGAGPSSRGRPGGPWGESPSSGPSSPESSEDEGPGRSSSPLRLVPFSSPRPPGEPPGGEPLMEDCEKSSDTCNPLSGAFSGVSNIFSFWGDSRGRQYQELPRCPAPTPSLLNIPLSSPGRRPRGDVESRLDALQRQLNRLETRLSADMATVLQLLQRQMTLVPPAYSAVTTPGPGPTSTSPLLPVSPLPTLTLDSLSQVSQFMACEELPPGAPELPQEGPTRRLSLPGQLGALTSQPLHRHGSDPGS

[4] = Half life in rat liver microsomes; format: ADME, Microsome
[5] = Drug level in Sprague-Dawley rat brain at 3 mg/kg, po after 0.75 hrs; format: ADME, organism-based; design: dose 3 mg/kg, route oral; conditions: read-out: Drug uptake
[6] = Drug level in Sprague-Dawley rat plasma at 3 mg/kg, po after 0.75 hrs; format: ADME, organism-based; design: dose 3 mg/kg, route oral; conditions: read-out: Drug uptake
[7] = Ratio of drug level in brain to plasma in Sprague-Dawley rat at 3 mg/kg, po after 0.75 hrs; format: ADME, organism-based; design: dose 3 mg/kg, route oral
[8] = tested on: Rattus norvegicus; assay: Inhibition of DOI-induced hypolocomotion in Sprague-Dawley rat at 3 mg/kg, po administered 25 mins before DOI challenge measured after 10 mins; format: functional
[9] = tested on: Rattus norvegicus; assay: Inhibition of DOI-induced hypolocomotion in Sprague-Dawley rat at 1 mg/kg, po administered 25 mins before DOI challenge measured after 10 mins; format: functional
[10] = target: Cytochrome P450 2C9 (Homo sapiens, UniProt P11712); assay: Inhibition of CYP2C9 in human liver microsomes; format: ADME, Microsome
Sequence of Cytochrome P450 2C9 (P11712 whole entry): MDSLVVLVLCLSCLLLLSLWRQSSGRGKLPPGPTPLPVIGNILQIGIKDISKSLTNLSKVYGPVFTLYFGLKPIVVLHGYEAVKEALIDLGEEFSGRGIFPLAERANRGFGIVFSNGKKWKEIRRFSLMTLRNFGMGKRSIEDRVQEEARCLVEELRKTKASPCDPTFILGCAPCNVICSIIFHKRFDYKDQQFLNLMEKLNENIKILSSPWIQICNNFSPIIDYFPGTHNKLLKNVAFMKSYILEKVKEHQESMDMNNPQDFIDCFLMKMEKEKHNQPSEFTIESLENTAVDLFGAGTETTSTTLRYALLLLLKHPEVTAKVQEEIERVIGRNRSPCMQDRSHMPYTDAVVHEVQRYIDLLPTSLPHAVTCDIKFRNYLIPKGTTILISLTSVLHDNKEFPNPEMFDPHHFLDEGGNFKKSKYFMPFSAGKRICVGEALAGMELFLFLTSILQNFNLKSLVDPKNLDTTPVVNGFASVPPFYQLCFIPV

[11] = tested on: Rattus norvegicus; assay: Effect on behavioral activity in Sprague-Dawley rat assessed as increase in deep sleep at 0.1 mg/kg, po after 1 hr; format: functional, organism-based; design: dose 0.1 mg/kg
[12] = Half life in Sprague-Dawley rat at 10 mg/kg, po; format: ADME, organism-based; design: dose 10 mg/kg, route oral; conditions: in vivo
[13] = target: Cytochrome P450 3A4 (Homo sapiens, UniProt P08684); assay: Inhibition of CYP3A4 in human liver microsomes; format: ADME, Microsome
Sequence of Cytochrome P450 3A4 (P08684 whole entry): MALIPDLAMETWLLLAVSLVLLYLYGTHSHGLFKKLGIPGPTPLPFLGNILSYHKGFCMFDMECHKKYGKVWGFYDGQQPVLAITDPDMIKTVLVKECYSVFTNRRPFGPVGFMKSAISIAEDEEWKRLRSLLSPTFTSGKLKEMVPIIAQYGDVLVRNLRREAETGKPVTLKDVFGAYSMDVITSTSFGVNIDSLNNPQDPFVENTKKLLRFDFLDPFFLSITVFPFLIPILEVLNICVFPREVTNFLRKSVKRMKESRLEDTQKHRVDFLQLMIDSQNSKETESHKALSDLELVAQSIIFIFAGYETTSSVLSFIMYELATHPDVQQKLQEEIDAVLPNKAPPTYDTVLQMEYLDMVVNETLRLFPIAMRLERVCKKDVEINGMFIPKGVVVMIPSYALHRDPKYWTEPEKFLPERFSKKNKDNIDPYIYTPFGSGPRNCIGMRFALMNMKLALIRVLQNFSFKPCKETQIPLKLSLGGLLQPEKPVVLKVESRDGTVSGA

[14] = Oral bioavailability in Sprague-Dawley rat at 10 mg/kg relative to 2 mg/kg, iv dose; format: ADME, organism-based; conditions: in vivo
[15] = Drug level in Sprague-Dawley rat brain at 0.3 mg/kg, po after 0.75 hrs; format: ADME, organism-based; design: dose 0.3 mg/kg, route oral; conditions: read-out: Drug uptake
[16] = target: Cytochrome P450 2D6 (Homo sapiens, UniProt P10635); assay: Inhibition of CYP2D6 in human liver microsomes; format: ADME, Microsome
Sequence of Cytochrome P450 2D6 (P10635 whole entry): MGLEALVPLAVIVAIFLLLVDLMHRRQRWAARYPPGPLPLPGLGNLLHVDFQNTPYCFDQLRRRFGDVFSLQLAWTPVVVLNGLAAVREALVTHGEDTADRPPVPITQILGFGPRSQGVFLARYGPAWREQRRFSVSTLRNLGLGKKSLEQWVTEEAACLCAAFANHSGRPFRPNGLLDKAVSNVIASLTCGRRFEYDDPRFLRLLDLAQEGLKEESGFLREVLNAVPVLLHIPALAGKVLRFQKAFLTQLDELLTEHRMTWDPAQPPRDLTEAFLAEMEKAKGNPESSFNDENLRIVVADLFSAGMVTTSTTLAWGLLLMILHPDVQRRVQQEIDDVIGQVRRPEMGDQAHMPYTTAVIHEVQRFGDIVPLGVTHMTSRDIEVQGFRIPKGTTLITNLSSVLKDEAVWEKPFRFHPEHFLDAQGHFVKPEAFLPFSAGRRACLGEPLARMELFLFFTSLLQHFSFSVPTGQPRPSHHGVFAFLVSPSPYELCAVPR

[17] = tested on: Rattus norvegicus; assay: Inhibition of DOI-induced hypolocomotion in po dosed Sprague-Dawley rat administered 25 mins before DOI challenge measured after 10 mins; format: functional, organism-based
[18] = Drug level in Sprague-Dawley rat plasma at 0.3 mg/kg, po after 0.75 hrs; format: ADME, organism-based; design: dose 0.3 mg/kg, route oral; conditions: read-out: Drug uptake
[19] = target: Cytochrome P450 2C19 (Homo sapiens, UniProt P33261); assay: Inhibition of CYP2C19 in human liver microsomes; format: ADME, Microsome
Sequence of Cytochrome P450 2C19 (P33261 whole entry): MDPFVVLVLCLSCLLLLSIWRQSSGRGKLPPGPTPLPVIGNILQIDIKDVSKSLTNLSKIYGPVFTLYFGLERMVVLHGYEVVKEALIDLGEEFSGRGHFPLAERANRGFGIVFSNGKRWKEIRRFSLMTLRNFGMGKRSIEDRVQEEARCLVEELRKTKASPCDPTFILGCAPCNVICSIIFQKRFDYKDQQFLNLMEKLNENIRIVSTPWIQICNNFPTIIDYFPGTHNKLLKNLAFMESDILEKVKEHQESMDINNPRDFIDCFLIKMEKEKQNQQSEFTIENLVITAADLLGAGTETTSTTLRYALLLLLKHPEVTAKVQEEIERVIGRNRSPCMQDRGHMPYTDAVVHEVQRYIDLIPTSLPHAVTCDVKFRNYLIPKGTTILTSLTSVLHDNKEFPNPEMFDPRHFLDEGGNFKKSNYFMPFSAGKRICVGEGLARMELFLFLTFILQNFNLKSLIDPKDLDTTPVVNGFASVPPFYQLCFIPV

[20] = target: T2, Cytochrome P450 1A2 (Homo sapiens, UniProt P05177); assay: Inhibition of CYP1A2 in human liver microsomes; format: ADME, Microsome
T2 sequence (P05177 whole entry): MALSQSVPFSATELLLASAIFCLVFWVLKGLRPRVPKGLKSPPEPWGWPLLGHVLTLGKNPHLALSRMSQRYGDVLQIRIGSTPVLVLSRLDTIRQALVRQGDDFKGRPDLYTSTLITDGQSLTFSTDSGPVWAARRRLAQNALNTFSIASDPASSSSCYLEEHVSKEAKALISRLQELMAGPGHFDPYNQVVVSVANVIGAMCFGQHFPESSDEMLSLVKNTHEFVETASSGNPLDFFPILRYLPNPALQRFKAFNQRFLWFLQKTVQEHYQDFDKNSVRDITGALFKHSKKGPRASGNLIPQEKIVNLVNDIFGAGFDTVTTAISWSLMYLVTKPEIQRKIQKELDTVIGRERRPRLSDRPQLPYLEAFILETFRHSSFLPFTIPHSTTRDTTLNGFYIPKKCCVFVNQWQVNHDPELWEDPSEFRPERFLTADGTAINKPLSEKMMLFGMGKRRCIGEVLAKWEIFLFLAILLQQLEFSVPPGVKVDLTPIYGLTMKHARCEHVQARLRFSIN

[21] = AUClast in Sprague-Dawley rat at 10 mg/kg, po; format: ADME, organism-based; design: time 0 - last, dose 10 mg/kg, route oral; conditions: plasma
[22] = tested on: Rattus norvegicus; assay: Effect on behavioral activity in po dosed Sprague-Dawley rat assessed as increase in sleep consolidation after 5 hrs; format: functional, organism-based
[23] = tested on: Rattus norvegicus; assay: Effect on behavioral activity in Sprague-Dawley rat assessed as increase in deep sleep at 0.1 mg/kg, po after 3 to 4 hrs; format: functional, organism-based; design: dose 0.1 mg/kg
[24] = tested on: Rattus norvegicus; assay: Volume of distribution at steady state in Sprague-Dawley rat at 10 mg/kg, po; format: ADME, organism-based; design: dose 10 mg/kg, route oral; conditions: in vivo
[25] = Total clearance in Sprague-Dawley rat at 2 mg/kg, iv; format: ADME, organism-based; design: dose 2 mg/kg, route intravenous; conditions: in vivo
[26] = Cmax in Sprague-Dawley rat at 10 mg/kg, po; format: ADME, organism-based; design: dose 10 mg/kg, route oral; conditions: in vivo
[27] = tested on: Rattus norvegicus; assay: Hepatic blood flow in Sprague-Dawley rat at 10 mg/kg, po; format: ADME, organism-based, Liver; design: dose 10 mg/kg, route oral; conditions: in vivo

Compound | Ki [1] | Ki [2] | further results
Cc1cc(C(=O)N2CCN(CC(=O)c3ccc(F)cc3)CC2)nn1C(C)(C)C | > 10 µM | 9.3 nM | –
COc1ccc(CCN2CCN(C(=O)c3nn(C)cc3Br)CC2)cc1 | > 10 µM | 408 nM | –
Cn1cc(Br)c(C(=O)N2CCN(CCN3C(=O)c4ccccc4C3=O)CC2)n1 | > 10 µM | > 10000 nM | –
Cn1cc(Br)c(C(=O)N2CCN(CCc3ccc(Cl)cc3)CC2)n1 | > 10 µM | 34 nM | –
Cn1cc(Br)c(C(=O)N2CCN(CC(=O)c3ccc(C(F)(F)F)cc3)CC2)n1 | > 10 µM | 865 nM | –
COc1ccc(NC(=O)N2CCN(CCc3ccc(F)cc3)CC2)cc1-c1c(Cl)cnn1C | > 10 µM | 155 nM | –
Cn1cc(Br)c(C(=O)N2CCN(CC(=O)c3ccc(F)cc3F)CC2)n1 | > 10 µM | 70 nM | –
Cc1nc2n(c(=O)c1CCN1CCN(C(=O)c3nn(C)cc3Br)CC1)CCCC2 | > 10 µM | > 10000 nM | –
CCn1cc(Cl)c(C(=O)N2CCN(CC(=O)c3ccc(F)cc3)CC2)n1 | > 10 µM | 2.6 nM | inhibition in vivo at 3 mg/kg [8]: 54%
Cc1cc(C(=O)N2CCN(CC(=O)c3ccc(F)cc3)CC2)[nH]n1 | > 10 µM | 36 nM | –
Cn1cc(Br)c(C(=O)N2CCN(CCc3ccccc3F)CC2)n1 | > 10 µM | 18 nM | –
Cc1cc(C(=O)N2CCN(CC(=O)c3ccc(F)cc3)CC2)nn1C | > 10 µM | 8.5 nM | –
Cn1cc(Br)c(C(=O)N2CCN(CCc3cccc(F)c3)CC2)n1 | > 10 µM | 542 nM | –
Cn1cc(Br)c(C(=O)N2CCN(CCc3ccccc3)CC2)n1 | > 10 µM | 68 nM | –

The next lines start with results.

Ki [1] | Ki [2] | Compound | further results
> 10 µM | 88 nM | O=C(Nc1[nH]ncc1Br)N1CCN(CCc2ccc(F)cc2)CC1 | –
1.42 µM | 37 nM | Cn1ccc(C(=O)N2CCN(CC(=O)c3ccc(F)cc3)CC2)n1 | –
> 10 µM | 368 nM | Cn1cc(Br)c(C(=O)N2CCN(CC(O)c3ccc(F)cc3)CC2)n1 (centres undefined) | –
5.61 µM | 6000 nM | Cn1cc(Br)c(C(=O)N2CCN(CC(=O)c3ccc(OC(F)(F)F)cc3)CC2)n1 | –
2.82 µM | 1.1 nM | Cn1cc(Br)c(C(=O)N2CCN(CCc3ccc(F)cc3F)CC2)n1 | inhibition at 3 µM [3]: 80%; half-life [4]: 9 min
3.71 µM | 11 nM | Cc1cc(C(=O)N2CCN(CC(=O)c3ccc(F)cc3)CC2)nn1-c1ccccc1 | –
3.87 µM | 4.5 nM | Cn1cc(I)c(C(=O)N2CCN(CC(=O)c3ccc(F)cc3)CC2)n1 | –
3.87 µM | 28 nM | Cn1cc(C(F)(F)F)c(C(=O)N2CCN(CC(=O)c3ccc(F)cc3)CC2)n1 | –
0.11 µM | 0.51 nM | COc1ccc(NC(=O)Nc2ccc(F)cc2F)cc1-c1c(Br)cnn1C [NELOTANSERIN] | concentration at 0.75 h [5]: 320 ng/mL; concentration at 0.75 h [6]: 488 ng/mL; Kp at 0.75 h [7]: 0.65
2.75 µM | 18.5 nM | O=C(CN1CCN(C(=O)c2n[nH]cc2Cl)CC1)c1ccc(F)cc1 | –
0.645 µM | 0.48 nM | N#Cc1c[nH]c2c(C(=O)N3CCN(CCc4ccc(F)cc4)CC3)cccc12 [PRUVANSERIN] | –
3.57 µM | 4.6 nM | Cc1[nH]nc(C(=O)N2CCN(CC(=O)c3ccc(F)cc3)CC2)c1Br | –
2.93 µM | 4.6 nM | Cc1c(Br)c(C(=O)N2CCN(CC(=O)c3ccc(F)cc3)CC2)nn1C | inhibition at 3 µM [3]: 15%; inhibition in vivo at 3 mg/kg [8]: 65%; half-life [4]: 29 min; inhibition in vivo at 1 mg/kg [9]: 22%
8.6 µM | 2470 nM | CO/N=C(/CN1CCN(C(=O)c2nn(C)cc2Br)CC1)c1ccc(F)cc1 | –
2.12 µM | – | Cn1cc(Br)c(C(=O)N2CCN(CC(=O)c3ccc(F)cc3)CC2)n1 | inhibition (INH) [10]: Not Active; Activity [11]: Active; half-life [12]: 126 min; inhibition (INH) [13]: Not Active; bioavailability [14]: 59%; concentration at 0.75 h [15]: 20.8 ng/mL; inhibition (INH) [16]: Not Active; inhibition in vivo at 3 mg/kg [8]: 65%; ED50 ([17]; Rattus norvegicus, Sprague-Dawley, po): 0.3 mg/kg; concentration at 0.75 h [18]: 17.8 ng/mL; half-life [4]: > 60 min; inhibition (INH) [19]: Not Active; inhibition (INH) [20]: Not Active; inhibition in vivo at 1 mg/kg [9]: 75%; AUC(0-t) [21]: 1450 ng·h/mL; Activity [22]: Dose-dependent effect; Activity [23]: Active; Vdss [24]: 1.5 L/kg; clearance [25]: 66.7 mL/min/kg; Cmax [26]: 1260 ng/mL
9.8 µM | 270 nM | Cn1cc(Br)c(C(=O)N2CCN(CC(=O)c3ccccc3F)CC2)n1 | –
4.15 µM | 3.6 nM | Cn1cc(Br)c(C(=O)N2CCN(CCc3ccc(F)cc3)CC2)n1 | inhibition at 3 µM [3]: 79%; half-life [12]: 84 min; bioavailability [14]: 9%; concentration at 0.75 h [5]: 16.8 ng/mL; EC50 [17]: 3 mg/kg; half-life [4]: 14 min; concentration at 0.75 h [6]: 8.3 ng/mL; AUC(0-t) [21]: 91 ng·h/mL; LBF [27]: 220%; Vdss [24]: 8.1 L/kg; clearance [25]: 155 mL/min/kg; Cmax [26]: 48 ng/mL; Kp at 0.75 h [7]: 2.02
